Results on 2 compounds are retold here after patent US12497394B2, “Fused-cyclic pyrazolone formamide compound and preparation method therefor, pharmaceutical composition and use thereof” (SHANGHAI INSTITUTE OF MATERIA MEDICA, CHINESE ACADEMY OF …, priority 2018, dated 2025).

One test deals with BaF3/TEL-AXL cells. Description: Proliferation of BaF3/TEL-AXL cells. It is filed as cell-based. The note with it: for inhibition at 0.001 µM / inhibition at 0.01 µM / inhibition at 0.1 µM: BaF3/TEL-AXL. The source says:
Experimental Example 4: Effect of the Compound on the Proliferation Effect of BaF3/TEL-AXL Cells
Based on the above-mentioned enzyme activity research results, we further explored the effect of the compound on cell proliferation mediated by receptor tyrosine kinase AXL.

Test [1] concerns the target receptor tyrosine kinase c-Met (Homo sapiens, UniProt P08581). Nature of the test: In vitro c-Met kinase inhibitory activity. It is filed as biochemical. To be noted: two values per compound. An excerpt: Experimental Example 3: Study of In Vitro c-Met Kinase Inhibitory Activity
Since the screening results of 369 kinase profiles of compound DC621044 has shown that the compound has a certain inhibitory activity on c-Met. We further screened some compounds for their inhibitory activity on c-Met kinase.

Test [2] addresses T1, receptor tyrosine kinase AXL (Homo sapiens, UniProt P30530).
T1 construct: 50 μL of AXL kinase domain recombinant protein diluted in reaction buffer was added to start the reaction; made in house; host or cells: insect cells (baculovirus expression system)
T1 sequence (P30530 536-807 limits assumed): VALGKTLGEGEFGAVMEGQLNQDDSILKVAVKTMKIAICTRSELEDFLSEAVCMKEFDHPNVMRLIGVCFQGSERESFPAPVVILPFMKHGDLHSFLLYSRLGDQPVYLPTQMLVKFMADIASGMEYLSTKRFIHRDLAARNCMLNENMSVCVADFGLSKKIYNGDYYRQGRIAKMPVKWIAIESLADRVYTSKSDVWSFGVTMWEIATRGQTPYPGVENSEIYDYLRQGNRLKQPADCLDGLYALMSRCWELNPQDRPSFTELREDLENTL
Description: Enzyme activity of receptor tyrosine kinase AXL (ELISA). Format: biochemical. The note with it: for inhibition at 0.001 µM: 1 nM; for inhibition at 0.001 µM / inhibition at 0.01 µM / inhibition at 0.1 µM: read-out: AXL activity Inhibitory rate(%); for inhibition at 0.01 µM: 10 nM; for inhibition at 0.1 µM: 100 nM. As to the method: Detection method: Enzyme-linked immunosorbent assay (ELISA)
Tested receptor tyrosine kinase: AXL
The full-wavelength microplate reader for experiment reading was a product of Molecular Device, model: SpectraMax 190; the experiment water was distilled water produced by Sinopharm Group.
Compound preparation: The compounds were centrifuged at 12,000 g for 5 min, and DMSO was added to prepare a 10^−2M stock solution, vortexed evenly and sonicated for 10 min for use, and stored at −40° C. During the test, the compound was diluted from the stock solution to 100 times the tested concentration with DMSO (the DMSO concentration in the system was 1%).
1. […] Discard the liquid from the well. The plate was washed and washed three times with T-PBS (0.1% Tween-20 in potassium-free PBS, 200 μL/well) for 5 minutes each time.
2. 49 μL of ATP solution diluted with reaction buffer (50 mM HEPES pH 7.4, 50 mM MgCl2, 0.5 mM MnCl2, 0.2 mM Na3VO4, 1 mM DTT) was added to each well, and […] of the tested compound was added to each well, and then 50 μL of AXL kinase domain recombinant protein diluted in reaction buffer was added to start the reaction. Two control wells without ATP were added in each experiment. (100 rpm) Reacted in 37° C. shaker for 1 hour. Discard the liquid from the well, and the plate was washed with T-PBS for three times.
3. […] Discard the liquid from the well, and the plate was washed with T-PBS for three times.
4. The horseradish peroxidase-labeled goat anti-mouse second antibody dilution (antibody diluted 1:2000 with BSA 5 mg/mL in T-PBS), 100 μL/well, and reacted in 37° C. shaker for 0.5 hours. Discard the liquid from the well, and the plate was washed with T-PBS for three times.
6. The reaction was quenched with 50 μL/well 2M […], and read at 490 nm using a tunable microplate reader VERSAmax.
The IC50 values were obtained by four-parameter regression analysis using the software supplied with the microplate reader.
In general terms: ELISA stands for enzyme-linked immunosorbent assay.

Where [3] appears, read: 1 nM, two values per compound, 0.001 µM.
Setting [4] is: 10 nM, two values per compound, 0.01 µM.
[5] abbreviates: 100 nM, two values per compound, 0.1 µM.
[6] abbreviates: 1 nM, two values per compound, read-out: BaF3/TEL-AXL proliferation Inhibitory rate (%).
[7] abbreviates: 10 nM, two values per compound, read-out: BaF3/TEL-AXL proliferation Inhibitory rate (%).
[8] abbreviates: 100 nM, two values per compound, read-out: BaF3/TEL-AXL proliferation Inhibitory rate (%).
Where [9] appears, read: 10 nM, read-out: c-Met Inhibitory rate (%).
[10] abbreviates: 100 nM, read-out: c-Met Inhibitory rate (%).

Like-named read-outs stand apart in the source and are kept apart here.

The term IC50 denotes the concentration needed to halve the response being measured. The low end stands for inhibition by little substance, the high end for a need for much substance.

receptor tyrosine kinase c-Met, sequence (P08581 25-1390): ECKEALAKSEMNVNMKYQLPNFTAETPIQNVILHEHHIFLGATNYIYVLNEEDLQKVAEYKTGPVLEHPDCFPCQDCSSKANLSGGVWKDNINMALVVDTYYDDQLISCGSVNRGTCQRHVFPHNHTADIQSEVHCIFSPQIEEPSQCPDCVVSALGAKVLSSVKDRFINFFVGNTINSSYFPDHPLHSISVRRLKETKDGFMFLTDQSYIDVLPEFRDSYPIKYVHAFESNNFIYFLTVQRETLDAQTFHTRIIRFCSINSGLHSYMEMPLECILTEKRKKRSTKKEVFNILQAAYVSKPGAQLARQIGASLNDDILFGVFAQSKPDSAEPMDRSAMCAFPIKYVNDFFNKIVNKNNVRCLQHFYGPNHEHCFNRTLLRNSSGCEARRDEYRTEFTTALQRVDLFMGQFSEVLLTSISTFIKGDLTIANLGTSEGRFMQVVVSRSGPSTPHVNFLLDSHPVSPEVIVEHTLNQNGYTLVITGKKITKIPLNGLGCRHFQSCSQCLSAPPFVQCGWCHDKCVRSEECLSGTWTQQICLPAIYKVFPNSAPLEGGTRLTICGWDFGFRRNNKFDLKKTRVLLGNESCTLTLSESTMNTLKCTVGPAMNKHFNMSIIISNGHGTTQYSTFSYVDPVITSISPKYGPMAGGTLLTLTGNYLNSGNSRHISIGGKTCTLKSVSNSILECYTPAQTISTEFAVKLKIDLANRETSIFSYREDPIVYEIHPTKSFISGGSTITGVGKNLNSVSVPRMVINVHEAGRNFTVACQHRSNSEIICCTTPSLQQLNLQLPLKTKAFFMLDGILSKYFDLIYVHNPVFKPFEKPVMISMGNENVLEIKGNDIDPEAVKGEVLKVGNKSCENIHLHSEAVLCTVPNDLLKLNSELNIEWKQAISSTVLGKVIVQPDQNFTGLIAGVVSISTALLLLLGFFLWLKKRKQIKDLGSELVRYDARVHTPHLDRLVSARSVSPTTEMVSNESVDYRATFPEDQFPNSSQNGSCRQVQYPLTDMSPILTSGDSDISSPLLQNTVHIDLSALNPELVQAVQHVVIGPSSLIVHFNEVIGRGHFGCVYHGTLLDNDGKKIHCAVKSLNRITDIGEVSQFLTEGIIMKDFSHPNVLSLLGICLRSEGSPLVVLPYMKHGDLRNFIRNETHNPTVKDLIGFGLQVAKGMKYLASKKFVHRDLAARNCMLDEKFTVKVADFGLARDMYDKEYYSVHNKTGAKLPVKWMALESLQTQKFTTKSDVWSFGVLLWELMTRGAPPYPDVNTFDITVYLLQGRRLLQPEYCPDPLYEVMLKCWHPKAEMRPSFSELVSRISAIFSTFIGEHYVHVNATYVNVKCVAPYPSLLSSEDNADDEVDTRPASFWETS

Take `COCCOc1cc2ncnc(Oc3ccc(NC(=O)c4c5n(n(-c6ccc(F)cc6)c4=O)CCCC5)c(F)c3)c2cc1OCCOC` [DC621060, N-(4-((6,7-bis(2-methoxyethoxy)quinazolin-4-yl)oxy)-2-fluorophenyl)-1-(4-fluorophenyl)-2-oxo-1,2,4,5,6,7-hexahydropyrazolo[1,5-a]pyridine-3-formamide]: the “BaF3/TEL-AXL proliferation Inhibitory rate (%)” value in the test on BaF3/TEL-AXL cells (setting [3]) was 66.3%; with BaF3/TEL-AXL cells (setting [4]) it was 73.4%; in the test on BaF3/TEL-AXL cells (setting [5]), 85.3%. Besides, the inhibition at 0.001 µM with BaF3/TEL-AXL cells (setting [6]) was found to be 64.5%; in test [2] it was 21.5%. In addition, the inhibition at 0.01 µM in the test with BaF3/TEL-AXL cells (setting [7]) was 71%; in test [1] (setting [9]), 43.9%; in test [2], 54.4%. In addition, the results for the inhibition at 0.1 µM (in the test with BaF3/TEL-AXL cells (setting [8]); in test [1] (setting [10]); in test [2]) were 85.4%, 91.9% and 84.2%, respectively. The “c-Met Inhibitory rate (%)” value in test [1] (10 nM, 0.01 µM) came out at 58.1%; in test [1] (100 nM, 0.1 µM), 95.4%.
For the compound `COCCOc1cc2ncnc(Oc3ccc(NC(=O)c4c5n(n(-c6cc(F)ccc6F)c4=O)CCCC5)cc3F)c2cc1OCCOC` [DC621024, 1-(2,5-difluorophenyl)-N-(4-((6,7-bis(2-methoxyethoxy)quinazolin-4-yl)oxy)-3-fluorophenyl)-2-oxo-1,2,4,5,6,7-hexahydropyrazolo[1,5-a]pyridine-3-formamide], the “BaF3/TEL-AXL proliferation Inhibitory rate (%)” value in the test on BaF3/TEL-AXL cells (setting [3]) is on record as 75.0%; in the test on BaF3/TEL-AXL cells (setting [4]), 80.5%; in the test with BaF3/TEL-AXL cells (setting [5]), 81.3%. Further, the inhibition at 0.001 µM in the test with BaF3/TEL-AXL cells (setting [6]) was 79.8%; in the test on BaF3/TEL-AXL cells (concentration of 1 nM, read-out: inhibited the proliferation of BaF3/TEL-AXL cells), greater than 70%; in test [1] (1 nM, read-out: c-Met Inhibitory rate (%)), 40.5%; in test [2] it was 29.9%. Also, the results for the inhibition at 0.01 µM (with BaF3/TEL-AXL cells (setting [7]); in test [1] (setting [9]); in test [2]) were 81%, 66.8% and 72.5%, respectively. In addition, the inhibition at 0.1 µM was determined as 85% with BaF3/TEL-AXL cells (setting [8]), 99.4% in test [1] (setting [10]) and 100% in test [2]. The “c-Met Inhibitory rate (%)” value in test [1] (1 nM, 0.001 µM) is listed as 53.5%; in test [1] (10 nM, 0.01 µM) it was 80.5%; in test [1] (100 nM, 0.1 µM) it was 100%. In test [2], this compound registered an IC50 of 8.7 ± 1 nM.
